Data on two compounds can be found in patent US9416144B2, “Benzoxazine oxazolidinone compound, preparation method and application thereof” (priority 2012, dated 2016).

Values after ≈ are worked out from the molar mass of the structure shown. Values joined by “and” are separate entries in the source; they are usually repeats but may differ in a detail not shown here. Equal values may be shown once. Read-outs that look alike come from different tables or passages of the source. Some results are limits rather than exact numbers.

The nature of data set [1]: In vivo pharmacokinetic assays in rats (intragastric and intravenous), plasma Compound 14 by LC-MS/MS. More on the design: species or system SD rats. On the procedure: Two routes of administration (intragastric administration and intravenous injection) were employed.
Intragastric administration: Four healthy SD rats, male, weight 200-250 g, were dosed 15 mg/kg; the delivery volume was 10 ml/kg, prepared with 0.5% CMC-Na. The rats were fasted for 12 hrs before administration, free water-drinking. 0.3 ml of venous blood was taken from the posterior venous plexus of rats to heparinized tubes at 0.25, 0.5, 1.0, 2.0, 3.0, 4.0, 5.0, 7.0, 9.0, 24, and 48 hrs after administration, centrifuged at 3500 rpm for 10 mins to separate the plasma, which was then stored at −20° C. for test.
Intravenous injection: Two healthy SD rats, male, weight 200˜250 g, were dosed 5 mg/kg; the delivery volume was 10 ml/kg, prepared with DMSO, Tween 80 and deionized water. The rats were fasted for 12 hrs before administration, free water-drinking. 0.3 ml of venous blood was taken from the posterior venous plexus of rats to heparinized tubes at 5 min, 15 min, and 0.5, 1.0, 2.0, 3.0, 4.0, 5.0, 7.0, 9.0, 24, and 48 hrs after administration, centrifuged at 3500 rpm for 10 mins to separate the plasma, which was then stored at −20° C. for test.
The concentration of Compound 14 in plasma was determined by liquid chromatography tandem mass spectrometry.
In accordance with the above experimental methods, the inventor has determined the in vivo pharmacokinetic properties of phosphate (ester) disodium salt 37 of Compound 14 in rats.

Test in data set [2]: as above
Further details: species or system SD rats. The conditions noted are these: for CLz: parameters of 14 in rats after 10 mg/kg Compound 37 intravenous injection.

Data set [3] has as its system methicillin-resistant Staphylococcus aureus ATCC 33591 (MRSA). Description: In vivo antibacterial activity, mice with systemic infection by MRSA, survival at 48 hours. To be noted: female ICR mice, systemic infection (2.35 × 10^7 CFU/mice, intraperitoneal), oral administration 1 hour after infection. As for the experimental part: Test strains: the strain used to infect animals was methicillin-resistant Staphylococcus aureus ATCC 33591 (MRSA).
Experimental animals: female ICR mice, age: 4 to 5 weeks, weight 20 to 22 grams, available from Shanghai Sippr BK Experimental Animal Co., Ltd., qualification certificate No.: 2008001625863.
Experimental method: Mice were randomly divided into groups. There were 4 dosage groups for each subject drug each administration manner: 2.5, 5, 10 and 20 mg/kg, 6 mice for each dosage group. Furthermore, a gastric mucin vehicle group was used as negative control for each administration manner. Mice were intraperitoneally injected with 10^7-10^8 CFU/mL of the bacterial suspension, 0.5 ml/mouse, and at 1 hour after infection the mice were orally administered the corresponding drugs for treatment, dosing volume 0.2 mL/20 g. This research program complied with the provisions and relevant regulations of National Laboratory Animal Management and Welfare.

For data set [4], the system named is Staphylococcus aureus sensitive strains (5 strains). Description: In vitro antibacterial activity, MIC by agar double dilution method. The data set is classed as cell-based. The conditions noted are these: clinical isolates. An outline of the steps:
(§1)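 Clinical isolates from the Nanjing region, spotted at about 10^6 CFU/mL onto MIT agar containing drug at 64 down to 0.031 μg/mL in 2-fold steps. Plates incubated 16 hrs at 35° C.; MIC is the lowest concentration with no growth.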

Data set [5] deals with Streptococcus pneumoniae resistant strains (4 strains). Described as above. It is filed as cell-based. The conditions noted are these: clinical isolates. An outline of the steps:
as §1

Data set [6] concerns Staphylococcus epidermidis resistant strains (5 strains). The data set is described as above. To be noted: clinical isolates. It is filed as cell-based. An outline of the steps: as §1
The next data set deals with Enterococcus (6 strains). The description is as above. It is filed as cell-based. To be noted: clinical isolates, 35° C. 16 hrs. The method in brief: as §1
Data set [7] deals with Staphylococcus aureus resistant strains (6 strains). Described as above. It is filed as cell-based. The conditions noted are these: clinical isolates. The method in brief: as §1
Data set [8] deals with Staphylococcus epidermidis sensitive strains (5 strains). Described as above. The data set is classed as cell-based. To be noted: clinical isolates. The method in brief: as §1
Data set [9] concerns S.a. ATCC 29213 (standard strain of Staphylococcus aureus). Description: In vitro antibacterial activity on linezolid-resistant strains, MIC in MHB broth, 96-well plate. The data set is classed as cell-based. To be noted: ATCC29213, 35° C. 20 hrs. On the procedure:
(§2) The stock solution of the subject drugs in DMSO was 10 mg/mL. MHA (agar) and MHB (broth) were both prepared according to the manufacturer's requirements.
(§3) Double dilution of drugs: under aseptic operation, 12.8 μL of liquid drug was added into the first well of a 96-well plate, and then added 27.2 μL DMSO and mixed. The 2nd to 12nd wells were all added 20 μL DMSO. 20 μL was taken from the first well to the second well and mixed up. 20 μL was taken from the second well to the third well, which was repeated till the 11st well, from which was taken 20 μL and discarded. The 12nd well only had 20 μL of DMSO as the growth control. Then 180 μL of sterile water was added to each well and mixed up. The drug used as control was prepared by the same method.
(§4) The solutions with different concentrations of antibacterial drugs after the double dilution and DMSO were added into a sterile 96-well plate separately, 10 μL per well, ready for use.
(§5) Single colonies were picked from the MHA plates into 5 ml of sterile saline and mixed up.
(§6) Light transmittance was adjusted to 80% with a spectrophotometer. After being diluted by 1:200 with MHB, 90 μL of such bacteria liquid was added into each of the wells which already had 10 μL of the drug liquid, mixed up, and incubated in a regular biochemical incubator at 35° C. for 20 hrs before the results were read out. At this time, the drug concentration in the 1st to 12nd wells was 32, 16, 8, 4, 2, 1, 0.5, 0.25, 0.125, 0.0625, 0.03125, 0 μg/mL, respectively.
(§7) Two parallel groups were set up for the same diluted concentration of a drug.
(§8) 4) Results Reading and Judgment: Refer to the Standard Recommended by the CLSI, 2010 Edition.
(§9) The positive control group was LZ (linezolid, brand name Zyvox, approved by the FDA in 2000 to be firstly sold in the United States, which is the first and also the only one of oxazolidinone antibacterial drugs allowed to enter clinical application).

Data set [10] relates to LRSE, linezolid-resistant strain of Staphylococcus epidermidis (1 strain). The description is as above. It is filed as cell-based. To be noted: LRSE (1 strain). As for the experimental part: as §2, §3, §4, §5, §6, §7, §8, §9
The subject of data set [11] is LREFL, linezolid-resistant strain of Enterococcus faecalis (3 strains). The description is as above. The data set is classed as cell-based. To be noted: LREFL (3 strains). As for the experimental part:
as §2, §3, §4, §5, §6, §7, §8, §9

Data set [12] has as its system LREFA, linezolid-resistant strain of Enterococcus faecium (3 strains). The description is as above. It is filed as cell-based. The conditions noted are these: LREFA (3 strains). As for the experimental part: as §2, §3, §4, §5, §6, §7, §8, §9
The test system of data set [13] is LRSA, linezolid-resistant strain of Staphylococcus aureus (3 strains). Described as above. The data set is classed as cell-based. The conditions noted are these: LRSA (3 strains). On the procedure: as §2, §3, §4, §5, §6, §7, §8, §9

Take `CN1CC(c2ccc(-c3ccc4c(c3)OC[C@H]3[C@H](COP(=O)([O-])[O-])OC(=O)N43)cn2)OC1=O.[Na+].[Na+]` (stereo partly shown) [Compound 37]: the “plasma exposure of 14 of the group receiving 37 relative to the group receiving 14” value in [1] (intragastric administration, upon measurement normalization) is reported as 157%. Also, the “plasma exposure of intravenous injection relative to that of Compound 14” value in [1] (intravenous injection, prodrug 37 vs Compound 14) is reported as 1.34 times. In data set [1] (oral, prodrug 37 vs Compound 14), the “oral plasma exposure relative to that of Compound 14” value was 1.5 times. The CLz in data set [2] (average value) is 40.3 mL/min/kg; in data set [2] (individual animals No. 5-7), 41.3 mL/min/kg and 35.7 mL/min/kg and 44 mL/min/kg. The “plasma exposure of compound 14 of the group receiving 37 relative to the group receiving 14” value in [2] (rats, intravenous injection, upon measurement normalization) was determined as 134%. For the same compound, in data set [3], the ED50 came out at 5.00 mg/kg.

For `CC(=O)NC[C@H]1CN(c2ccc(N3CCOCC3)c(F)c2)C(=O)O1` [LZ, linezolid, reference compound], the minimal inhibitory concentration (MIC) was 1 to 2 µg/mL (≈ 2.96 to 5.93 µM) in data set [4]; 2 µg/mL (≈ 5.93 µM) in data set [5]; 1 to 2 µg/mL (≈ 2.96 to 5.93 µM) in [6]; 1 to 2 µg/mL (≈ 2.96 to 5.93 µM) against Enterococcus (6 strains); 1 to 2 µg/mL (≈ 2.96 to 5.93 µM) in data set [7]; 1 µg/mL (≈ 2.96 µM) in data set [8]. Besides, the minimal inhibitory concentration (MIC) was 1 µg/mL (≈ 2.96 µM) in [9]; 16 µg/mL (≈ 47.4 µM) in data set [10]; 8 to 16 µg/mL (≈ 23.7 to 47.4 µM) in [11]; 8 to 16 µg/mL (≈ 23.7 to 47.4 µM) in [12]; greater than 32 µg/mL in data set [13]. Also, the 50% effective dose (ED50) in data set [3] (Staphylococcus aureus, read-out: ED50) stood at 9.87 mg/kg.

For orientation: ED50 means the dose that gives a 50% effect, or the effect in half of the subjects. As usually defined, the MIC is the smallest concentration in the dilution series that meets the test's criterion for growth inhibition. Low readings indicate greater potency, high ones weaker potency.
